Reference: patent US11672775B2, “Treprostinil prodrugs” (United Therapeutics Corporation, priority 2016, dated 2023)

Key:
Sprague Dawley rats [1] = test: Rat intraplantar injection model, von Frey test (Example 9); type: in vivo, Sprague Dawley rat; conditions: 1 μg/mL or 100 μg/mL; 15 and 90 minutes post-injection
Experimental: (§1) Male Sprague Dawley rats (n=112) were allocated into 14 groups of 8/group. The study was run in 2 cycles, on consecutive days, 7 groups per cycle. Each cycle was composed of a Saline group, PBS group, which served as the control, and also treprostinil at a dose of 100 μg/mL or 1 μg/mL.
(§2) Animals were administered 0.1 mL of test material by subcutaneous injection into the paw pad (Intraplantar injection) at time zero. Animals were subsequently evaluated for their response to mechanical (von Frey filaments) and thermal stimuli, 15 and 90 minutes post-injection. The von Frey test was conducted prior to the thermal test, which followed immediately within minutes for each animal. In addition, clinical observation scoring of the animal's reaction to injection was conducted. FIG. 16 schematically illustrates the study design.
Mechanical pain sensitivity was tested using the von Frey test, which measures the withdrawal force threshold of the animals. The lower the force applied represents a greater sensitivity to the stimulus. The von Frey test was performed 15 and 90 minutes post-Test Item injection.

Sprague Dawley rats [2] = test: Clinical observations following subcutaneous injection (Example 12); type: in vivo, Sprague Dawley rat; conditions: 0.1 and 0.3 mg/kg SC; some animals; approximately 4 hours postdosing
Experimental: Clinical observations were performed at approximately 6 hours prior to dosing, at the completion of dosing and at approximately 4 hours postdosing.

Sprague Dawley rats [3] = test: Rat intraplantar injection model, von Frey test (Example 10); type: in vivo, Sprague Dawley rat; conditions: 1 μg/mL or 100 μg/mL; 15 and 90 minutes post-injection
Experimental: (§3) Male Sprague Dawley rats (n=56) were allocated into 7 groups of 8 animals per group. […] Each group was compared to the phosphate buffer (50-mM phosphate buffer with 50-mM sodium chloride at pH=7.4) treated group, which served as the control (Group 1).
as §2, with “zero. Then, the animals” for “zero. Animals”, “conducted.” for “conducted. FIG. 16 schematically illustrates the study design.”
Mechanical pain sensitivity was tested using the von Frey test, which measures the withdrawal force threshold of the animals. The lower the force applied represents a greater sensitivity to the stimulus. The von Frey test was performed 15 and 90 minutes post-test item injection.

EP2 receptor = target: T1, EP2 receptor (Homo sapiens, UniProt P43116); test: cAMP assay (HTRF cAMP HiRange Kit), agonist mode, Example 4; type: cell-based; conditions: Table 2; HEK293T cells; read-out: Receptor activity EC50, EP receptor
T1 construct: expressed in transfected cells
Experimental: Materials. […] Cyclic AMP assay kit: HTRF cAMP HiRange Kit (CisBio, Cat #62AM6PEC). Cyclic AMP (cAMP) Assay: cAMP assays were performed according to the manufacturer's protocol using CisBio's HTRF cAMP HiRange Kit. […] The reaction was terminated by sequentially adding D2-labeled cAMP and cryptate-labeled anti-cAMP antibody in lysis buffer. […] Data in graphs are represented in Mean±SD. Dose-dependent responses were fitted with sigmoidal dose-response curves allowing variable slopes using GraphPad Prism versions 4, 5 or 6 (Graphpad Prism).

Sprague Dawley rats [4] = test: Rat intraplantar injection model, thermal pain sensitivity (Example 10); type: in vivo, Sprague Dawley rat
Experimental: as §3
as §2, with “zero. Then, the animals” for “zero. Animals”, “conducted.” for “conducted. FIG. 16 schematically illustrates the study design.”
(§4) The sensitivity of animals to a thermal pain stimulus was assessed immediately following the von Frey test. The time until withdrawal of the right-injected leg from a heat source was measured, and the lower (faster) the time of response represents a greater sensitivity to the stimulus. The test was performed 15 and 90 minutes post-test item injection.

rat = test: Rat intraplantar injection model, mean clinical score (Example 11); conditions: each of 15 min and 90 min
Text: FIG. 31 presents mean clinical score of cycle 1 (points). Increased/Higher score indicates more observations of adverse events.
FIG. 32 presents mean clinical score of cycle 2 (points). Increased/Higher score indicates more observations of adverse events.
FIGS. 31 and 32 present mean clinical score for Cycles 1 and 2 respectively.

Sprague Dawley rats [5] = test: Rat intraplantar injection model, thermal pain sensitivity (Example 9); type: in vivo, Sprague Dawley rat; conditions: 1 μg/mL or 100 μg/mL; 15 minutes post-administration
Experimental: as §1, §2
as §4, with “post-Test Item” for “post-test item”

Sprague Dawley rats [6] = test: Rat intraplantar injection model, clinical observation score (Example 9); type: in vivo, Sprague Dawley rat
Experimental: as §1, §2
A Clinical observation score was assigned by assessing for redness, swelling and paw placement.

T1 sequence (P43116 whole entry): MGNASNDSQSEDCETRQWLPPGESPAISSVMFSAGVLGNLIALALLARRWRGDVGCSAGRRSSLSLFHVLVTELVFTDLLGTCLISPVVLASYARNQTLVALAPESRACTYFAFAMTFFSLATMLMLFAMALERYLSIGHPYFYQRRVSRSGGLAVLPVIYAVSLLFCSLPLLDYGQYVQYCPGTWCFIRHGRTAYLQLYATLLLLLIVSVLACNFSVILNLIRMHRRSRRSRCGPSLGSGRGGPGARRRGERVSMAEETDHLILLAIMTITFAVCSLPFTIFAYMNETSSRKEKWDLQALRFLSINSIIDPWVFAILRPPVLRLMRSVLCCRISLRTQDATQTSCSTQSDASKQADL

von Frey withdrawal force threshold vs PBS-treated group (Sprague Dawley rats [1]): reduced withdrawal force threshold
clinical observations (Sprague Dawley rats [2]): flushed extremities
von Frey withdrawal force threshold vs phosphate buffer group (Sprague Dawley rats [3]): reduced withdrawal force threshold
EC50 (EP2 receptor): 6.75 nM
mean clinical score of cycle 2 (rat; 1 μg/mL): non-zero
mean clinical score of cycle 1 (rat; 100 μg/mL): non-zero
clinical score (Sprague Dawley rats [6]; 1 μg/mL (cycle 2), both time points (15 and 90 min)): non-zero
clinical score (Sprague Dawley rats [6]; 100 μg/mL (cycle 1), 15 min): non-zero
clinical score vs PBS group (Sprague Dawley rats [6]; 100 μg/mL (cycle 1), 90 minutes post-injection): non-zero
Compound: CCCCC[C@H](O)CC[C@@H]1[C@H]2Cc3cccc(OCC(=O)O)c3C[C@H]2C[C@H]1O [Treprostinil]
thermal paw withdrawal time vs phosphate buffer treated group (Sprague Dawley rats [4]; 1 μg/mL or 100 μg/mL, 15 minutes post-administration): statistically significantly faster paw withdrawal time
sensitivity to heat stimulation vs vehicle (phosphate buffer) group (Sprague Dawley rats [4]; 100 μg/mL, 90 minutes post-injection): statistically significantly increased sensitivity
thermal paw withdrawal time vs PBS treated group (Sprague Dawley rats [5]): statistically significantly faster paw withdrawal time
clinical score vs PBS treated group (Sprague Dawley rats [6]; 1 μg/mL or 100 μg/mL, 15 and 90 minutes post-injection): statistically significant increase in the clinical score
